Laboratory results reported in US20240025880A1 (CHIESI FARMACEUTICI S.P.A., priority 2020, published 2024).

Biological target: T1, h P2X3 (Homo sapiens, UniProt P56373)
T1 sequence (P56373 1-397): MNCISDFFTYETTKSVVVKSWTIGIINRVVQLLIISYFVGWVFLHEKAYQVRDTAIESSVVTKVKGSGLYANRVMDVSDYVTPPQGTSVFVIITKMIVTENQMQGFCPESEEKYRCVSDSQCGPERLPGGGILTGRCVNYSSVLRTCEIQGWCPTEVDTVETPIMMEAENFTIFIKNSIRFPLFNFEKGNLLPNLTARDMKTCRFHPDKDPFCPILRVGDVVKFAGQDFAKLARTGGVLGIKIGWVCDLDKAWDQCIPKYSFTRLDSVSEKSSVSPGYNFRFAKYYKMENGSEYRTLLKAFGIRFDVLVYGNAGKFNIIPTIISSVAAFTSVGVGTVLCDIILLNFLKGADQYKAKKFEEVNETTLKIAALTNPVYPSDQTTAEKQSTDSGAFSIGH
Test: In vitro electrophysiology assay for P2X3 (automated whole-cell patch clamp, α,β-MeATP agonist)
Format: cell-based
Conditions: Table 2; 800 nM α,β-MeATP, peak current; read-out: h P2X3 (pIC50 range of activity) (converted)
Procedure: In Vitro Electrophysiology Assay for P2X3
Cells expressing P2X3 receptors were grown according to standard practice and maintained at 37° C. in a 5% humidified CO2 atmosphere. The cells were seeded into T175 flask 2 days prior to the day of the assay and dissociated from the flasks using TrypLE when grown to confluence of 80-90%. The dissociated cells were resuspended in serum free media at a cell density of 3×10^6 cells/ml and loaded onto the Sophion Qube automated patch-clamp system. The extracellular assay buffer contained 145 mM NaCl, 4 mM KCl, 2 mM CaCl2, 1 mM MgCl2, 10 mM HEPES, and 10 mM glucose at pH 7.4. The intracellular assay solution contained 140 mM CsF, 10 mM NaCl, 10 mM EGTA, 10 mM HEPES at pH 7.2. Agonist stock solutions were prepared in H2O and diluted in bath solution prior to use. All antagonists were prepared as 10 mM stock solutions in DMSO and diluted in bath solution prior to use. All experiments were performed under the whole-cell patch clamp configuration at room temperature with 384 individual cells being voltage clamped at −60 mV simultaneously on the Sophion Qube instrument. Two baseline responses were established with the application of α,β-MeATP (800 nM), with the subsequent agonist applications being washed out using extracellular assay buffer containing 0.5 U/ml apyrase. Following the second agonist application, antagonist was incubated in the absence of α,β-MeATP for 10 minutes. After antagonist preincubation, 800 nM α,β-MeATP and antagonist were co-administered to determine the inhibitory effect of the antagonist. One concentration of an antagonist was assessed against a single cell, with different concentrations of the antagonist applied to other cells on the 384 recording substrate. The control P2X3 current amplitude was taken from the peak current amplitude from the second agonist response prior to preincubation with antagonist. The peak P2X3 current amplitude in the presence of antagonist was used to calculate the inhibitory effect at each concentration of the antagonist according to the following equation:
Percentage inhibition of P2X3=(P2X3 control peak amplitude−P2X3 antagonist peak amplitude)/P2X3 control peak amplitude)*100
Concentration-response curves were constructed from ten different concentrations with each concentration of antagonist tested on at least two individual cells. The concentration of the antagonist to inhibit P2X3 current by 50% (IC50) was determined by fitting the data with the following equation:
Y=a+[(b−a)/(1+10^((log c−x)d)]
Where ‘a’ is minimum response, ‘b’ is maximum response, ‘c’ is IC50 and ‘d’ is Hill slope.

Cc1ccc([C@@H](C)Nc2ncnc3c(S(=O)(=O)N(C)C)cc(-c4ccc(F)cc4)cc23)nn1 [Example 13, (R)-6-(4-fluorophenyl)-N,N-dimethyl-4-((1-(6-methylpyridazin-3-yl)ethyl)amino)quinazoline-8-sulfonamide]
IC50: < 316 nM

C[C@@H](Nc1ncnc2c(OCC(=O)NS(=O)(=O)c3ccccc3)cc(-c3ccc(F)cc3)cc12)c1cnc(C(F)(F)F)nc1 [Example 40, (R)-2-((6-(4-fluorophenyl)-4-((1-(2-(trifluoromethyl)pyrimidin-5-yl)ethyl)amino)quinazolin-8-yl)oxy)-N-(phenylsulfonyl)acetamide]
IC50: < 316 nM

Cc1ccc(CNc2ncnc3c(OCc4ncco4)cc(-c4ccc(F)cc4)cc23)nn1 [Example 57, 6-(4-fluorophenyl)-N-[(6-methylpyridazin-3-yl)methyl]-8-(oxazol-2-ylmethoxy)quinazolin-4-amine]
IC50: < 316 nM

Cc1ccc([C@@H](C)Nc2ncnc3c(S(=O)(=O)N4CCC(O)CC4)cc(-c4ccc(F)cc4)cc23)nn1 [Example 19, (R)-1-((6-(4-fluorophenyl)-4-((1-(6-methylpyridazin-3-yl)ethyl)amino)quinazolin-8-yl)sulfonyl)piperidin-4-ol]
IC50: 316 to 3160 nM

CC(=O)N1CC[C@H](Oc2cc(-c3ccc(F)cc3)cc3c(N[C@H](C)c4cnc(C(F)(F)F)nc4)ncnc23)C1 [Example 31]
IC50: 316 to 3160 nM

Cc1ccc([C@@H](C)Nc2ncnc3c(SC4COC4)cc(-c4ccc(F)cc4)cc23)nn1 [Example 28, (R)-6-(4-fluorophenyl)-N-(1-(6-methylpyridazin-3-yl)ethyl)-8-(oxetan-3-ylthio)quinazolin-4-amine]
IC50: 3160 to 31600 nM

Cc1ccc(CNc2ncnc3c(OCC#N)cc(-c4ccc(F)cc4)cc23)nn1 [Example 53]
IC50: < 316 nM

C[C@@H](Nc1ncnc2c(OCC(=O)O)cc(-c3ccc(F)cc3)cc12)c1cnc(C(F)(F)F)nc1 [Example 39, (R)-2-((6-(4-fluorophenyl)-4-((1-(2-(trifluoromethyl)pyrimidin-5-yl)ethyl)amino)quinazolin-8-yl)oxy)acetic acid]
IC50: < 316 nM

Cc1ccc(CNc2ncnc3c(OCC(=O)N[C@H]4CCC[C@H]4C(=O)O)cc(-c4ccc(F)cc4)cc23)nn1 [Example 45, (1R,2S)-2-(2-((6-(4-fluorophenyl)-4-(((6-methylpyridazin-3-yl)methyl)amino)quinazolin-8-yl)oxy)acetamido)cyclopentane-1-carboxylic acid]
IC50: < 316 nM

C[C@@H](Nc1ncnc2c(OCC3(C(=O)O)CC3)cc(-c3ccc(F)cc3)cc12)c1cnc(C(F)(F)F)nc1 [Example 41, (R)-1-(((6-(4-fluorophenyl)-4-((1-(2-(trifluoromethyl)pyrimidin-5-yl)ethyl)amino)quinazolin-8-yl)oxy)methyl)cyclopropane-1-carboxylic acid]
IC50: 316 to 3160 nM

Cc1ccc([C@@H](C)Nc2ncnc3c(OCC(F)F)cc(-c4ccc(F)cn4)cc23)nn1 [Example 5, (R)-8-(2,2-difluoroethoxy)-6-(5-fluoropyridin-2-yl)-N-(1-(6-methylpyridazin-3-yl)ethyl)quinazolin-4-amine]
IC50: 316 to 3160 nM

C[C@@H](Nc1ncnc2c(OCC3(C(=O)O)CCCCC3)cc(-c3ccc(F)cc3)cc12)c1cnc(C(F)(F)F)nc1 [Example 48, (R)-1-(((6-(4-fluorophenyl)-4-((1-(2-(trifluoromethyl)pyrimidin-5-yl)ethyl)amino)quinazolin-8-yl)oxy)methyl)cyclohexane-1-carboxylic acid]
IC50: 316 to 3160 nM

Cc1ccc(CNc2ncnc3c(OC4COC4)cc(-c4ccc(F)cc4)cc23)nn1 [Example 63, 6-(4-fluorophenyl)-N-((6-methylpyridazin-3-yl)methyl)-8-(oxetan-3-yloxy)quinazolin-4-amine]
IC50: 316 to 3160 nM

Cc1ccc(CNc2ncnc3c(OCc4noc(C)n4)cc(-c4ccc(F)cc4)cc23)nn1 [Example 58, 6-(4-fluorophenyl)-8-[(5-methyl-1,2,4-oxadiazol-3-yl)methoxy]-N-[(6-methylpyridazin-3-yl)methyl]quinazolin-4-amine]
IC50: < 316 nM

Cc1ccc(CNc2ncnc3c(OCC4(C)COC4)cc(-c4ccc(F)cc4)cc23)nn1 [Example 50, 6-(4-fluorophenyl)-8-[(3-methyloxetan-3-yl)methoxy]-N-[(6-methylpyridazin-3-yl)methyl]quinazolin-4-amine]
IC50: < 316 nM

Cc1nnc(C(C)Nc2ncnc3c(S(=O)(=O)N(C)C)cc(-c4ccc(F)cc4)cc23)s1 (stereo not drawn) [Example 14, 6-(4-fluorophenyl)-N,N-dimethyl-4-((1-(5-methyl-1,3,4-thiadiazol-2-yl)ethyl)amino)quinazoline-8-sulfonamide]
IC50: < 316 nM

CSc1cc(-c2ccc(F)cc2)cc2c(N[C@H](C)c3ccc(C)nn3)ncnc12 [Example 26, (R)-6-(4-fluorophenyl)-N-(1-(6-methylpyridazin-3-yl)ethyl)-8-(methylthio)quinazolin-4-amine]
IC50: 316 to 3160 nM

Cc1cnc(-c2cc(OCC(=O)NS(=O)(=O)c3ccccc3)c3ncnc(NCc4ccc(C)nn4)c3c2)nc1 [Example 49, Ammonium (2-((4-(((6-methylpyridazin-3-yl)methyl)amino)-6-(5-methylpyrimidin-2-yl)quinazolin-8-yl)oxy)acetyl)(phenylsulfonyl) amide]
IC50: < 316 nM

C[C@@H](Nc1ncnc2c(OCC(=O)NC3(C(=O)O)CC3)cc(-c3ccc(F)cc3)cc12)c1cnc(C(F)(F)F)nc1 [Example 44, (R)-1-(2-((6-(4-fluorophenyl)-4-((1-(2-(trifluoromethyl)pyrimidin-5-yl)ethyl)amino)quinazolin-8-yl)oxy)acetamido)cyclopropane-1-carboxylic acid]
IC50: 316 to 3160 nM

Cc1ccc([C@@H](C)Nc2ncnc3c(S(=O)(=O)N4CCNCC4)cc(-c4ccc(F)cc4)cc23)nn1 [Example 24, (R)-6-(4-fluorophenyl)-N-(1-(6-methylpyridazin-3-yl)ethyl)-8-(piperazin-1-ylsulfonyl)quinazolin-4-amine]
IC50: 316 to 3160 nM

CCOC(=O)[C@H]1CCC[C@H]1NC(=O)COc1cc(-c2ccc(F)cc2)cc2c(NCc3ccc(C)nn3)ncnc12 [Example 46, Ethyl (1S,2R)-2-(2-((6-(4-fluorophenyl)-4-(((6-methylpyridazin-3-yl)methyl)amino)quinazolin-8-yl)oxy)acetamido)cyclopentane-1-carboxylate]
IC50: 316 to 3160 nM

Cc1nnc(C(C)Nc2ncnc3c(OCC(F)F)cc(-c4ccc(F)cn4)cc23)s1 (single isomer, unassigned; enantiomer 2) [Example 7, Single enantiomer 2 of 8-(2,2-difluoroethoxy)-6-(5-fluoro-2-pyridyl)-N-[1-(5-methyl-1,3,4-thiadiazol-2-yl)ethyl]quinazolin-4-amine]
IC50: 3160 to 31600 nM

Cc1ccc(CNc2ncnc3c(OC4CN(C(=O)OC(C)(C)C)C4)cc(-c4ccc(F)cc4)cc23)nn1 [Example 52, tert-butyl 3-[6-(4-fluorophenyl)-4-[(6-methylpyridazin-3-yl)methylamino]quinazolin-8-yl]oxyazetidine-1-carboxylate]
IC50: 316 to 3160 nM

CC(=O)N1CC[C@@H](Oc2cc(-c3ccc(F)cc3)cc3c(N[C@H](C)c4cnc(C(F)(F)F)nc4)ncnc23)C1 [Example 30]
IC50: 316 to 3160 nM

Cc1nc([C@@H](C)Nc2ncnc3c(S(=O)(=O)N4CCNCC4)cc(-c4ccc(F)cc4)cc23)no1 [Example 25, (R)-6-(4-fluorophenyl)-N-(1-(5-methyl-1,2,4-oxadiazol-3-yl)ethyl)-8-(piperazin-1-ylsulfonyl)quinazolin-4-amine]
IC50: 316 to 3160 nM

CCc1noc(COc2cc(-c3ccc(F)cc3)cc3c(NCc4ccc(C)nn4)ncnc23)n1 [Example 59, 8-[(3-ethyl-1,2,4-oxadiazol-5-yl)methoxy]-6-(4-fluorophenyl)-N-[(6-methylpyridazin-3-yl)methyl]quinazolin-4-amine]
IC50: < 316 nM

C[C@@H](Nc1ncnc2c(OC3CCN(CC(F)(F)F)CC3)cc(-c3ccc(F)cc3)cc12)c1cnc(C(F)(F)F)nc1 [Example 36]
IC50: 316 to 3160 nM
